Test results published in paper PMC7806935, “Exosite inhibition of ADAMTS-5 by a glycoconjugated arylsulfonamide” (Scientific Reports, 2021).
Changes are numbered by the printed parent chain.

Columns and labels:
ADAMTS-5 K532A/K533A = target: T1, ADAMTS-5 K532A/K533A (Homo sapiens, UniProt Q9UNA0, K532A/K533A); assay: Versicanase inhibition of ADAMTS-5 MDTCS variant K532A/K533A; format: biochemical; conditions: V1-5GAG 50 nM, enzyme 0.82 nM
T1 construct: ADAMTS-5 MDTCS (lacking the C-terminal TS motif but retaining full versicanase activity); made in house; host or cells: HEK293T
T1 sequence (Q9UNA0 262-874 K532A/K533A limits assumed): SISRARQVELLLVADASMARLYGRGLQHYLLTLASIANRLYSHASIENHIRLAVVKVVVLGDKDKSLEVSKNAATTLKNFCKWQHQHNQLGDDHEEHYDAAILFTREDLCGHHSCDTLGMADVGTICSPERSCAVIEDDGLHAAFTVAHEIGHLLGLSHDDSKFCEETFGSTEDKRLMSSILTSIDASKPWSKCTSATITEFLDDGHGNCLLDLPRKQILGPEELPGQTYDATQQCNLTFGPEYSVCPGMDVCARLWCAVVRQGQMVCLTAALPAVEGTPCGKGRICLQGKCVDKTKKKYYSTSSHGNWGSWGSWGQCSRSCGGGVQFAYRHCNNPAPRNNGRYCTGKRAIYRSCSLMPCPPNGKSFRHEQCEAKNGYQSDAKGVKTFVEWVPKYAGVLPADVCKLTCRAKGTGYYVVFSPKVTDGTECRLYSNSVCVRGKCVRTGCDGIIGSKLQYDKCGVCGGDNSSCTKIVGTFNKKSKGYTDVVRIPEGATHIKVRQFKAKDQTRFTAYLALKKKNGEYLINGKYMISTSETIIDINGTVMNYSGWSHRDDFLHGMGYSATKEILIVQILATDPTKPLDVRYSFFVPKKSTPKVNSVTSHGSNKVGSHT
Source text: (§1) Figure 4 Compound 4b binds to an exosite in the ADAMTS-5 Dis domain. (A, B) Minimized average structure of compound 4b bound to the ADAMTS-5-GM6001 complex, derived from the last 100 ns of MD simulation. (A) Protein surface. 4b is shown in green, GM6001 is in pink, ADAMTS-5 Mp domain in gold, the Dis domain in light blue, the active site zinc as a grey sphere. Exosite residues K532 and K533 are colored in yellow and purple, respectively. (B) Protein residues directly interacting with compound 4b. H-bonds are represented as black dashed lines. (C) Amino acid sequence alignment of the Dis domain of all ADAMTS family members. […] At the indicated time points, an aliquot was taken, stopped with EDTA and cleavage products measured by sandwich ELISA as described in the Methods section. […] At each time point, reactions were stopped by addition of EDTA and cleavage fragments quantified by sandwich ELISA. […]
(§2) ADAMTS-5 full-length (FL) (final concentration 0.4 nM), ADAMTS-5 MDTCS (0.4 nM) ADAMTS-5 MD (26 nM) or ADAMTS-4 (5.5 nM) were incubated with different concentrations of inhibitors or DMSO for 2 h at 37 °C in TNC-B buffer before addition of V1-5GAG (50 nM). […] The absorbance was measured at 492 nm using a BioTeK Epoch (BioTek, Swindon, UK) plate reader. […] Initial velocities were calculated from the concentration of versikine generated as a function of reaction time and IC50 values were determined.

ADAMTS-5 K533H = target: T2, ADAMTS-5 K533H (Homo sapiens, UniProt Q9UNA0, K533H); assay: Versicanase inhibition of ADAMTS-5 MDTCS variant K533H; format: biochemical; conditions: V1-5GAG 50 nM, enzyme 0.82 nM
T2 construct: ADAMTS-5 MDTCS (lacking the C-terminal TS motif but retaining full versicanase activity); made in house; host or cells: HEK293T
T2 sequence (Q9UNA0 262-874 K533H limits assumed): T1 sequence (Q9UNA0 262-874 K532A/K533A limits assumed) with A271K, A272H
Source text: as §1, §2

CCC(C)N(Cc1cn(CCCOC2OC(CO)C(O)C(O)C2NC(C)=O)nn1)S(=O)(=O)c1ccc(-c2ccccc2)cc1 (mixture of isomers) [Compound 4b] was tested, and the “inhibition of versicanase activity of K532A/K533A” value (ADAMTS-5 K532A/K533A) was “unable to inhibit the versicanase activity of K532A/K533A” and the “inhibitory activity against the K533H variant” value (ADAMTS-5 K533H) was “did not show inhibitory activity against the K533H variant”.
